Legend:
ER-positive T47D cells = assay: T47D cell growth inhibition (CellTiter-Glo, 6 days), ER degrader plus CDK4/6 inhibitor; type: cell-based, human
[1] = system: MCF7 human xenograft tumors; assay: Anti-tumor efficacy in MCF7 human xenograft tumors; type: in vivo; details: BALB/c nude mouse, 17β-estradiol tablet, treated for 21 days, versus each agent alone
Method: MCF-7 cells, a breast cancer cell cline, (10×10^6) in 0.1 mL of PBS mixed with 0.1 mL matrigel (total 0.2 mL) were inoculated subcutaneously at the right flank of each mouse, which has been implanted with 17β-estradiol (0.18 mg) tablet subcutaneously in the left flank three days before. When the average tumor volume reaches approximately 175 mm^3, the animals were randomized and treatment was started.
MCF-7 tumor cells (10×10^6) in 0.1 mL of PBS mixed with 0.1 mL matrigel (total 0.2 mL) were inoculated subcutaneously at the right flank of each BALB/c nude mouse, which has been implanted with 17β-estradiol (0.18 mg) tablet subcutaneously in the left flank three days before. When the average tumor volume reached approximately 175 mm^3, the animals were randomized and treated for 21 days with an ER degrader 160a alone, or with a CDK4/6 inhibitor, Palbociclib, alone, or with the combination of ER degrader 160a and Palbociclib.
MCF-7 tumor cells (10×10^6) in 0.1 mL of PBS mixed with 0.1 mL matrigel (total 0.2 mL) were inoculated subcutaneously at the right flank of each BALB/c nude mouse, which has been implanted with 17β-estradiol (0.18 mg) tablet subcutaneously in the left flank three days before. […]

[2] = system: Tamoxifen-resistant MCF7 human xenograft tumors; assay: Anti-tumor efficacy in tamoxifen-resistant MCF7 human xenograft tumors; type: in vivo; details: tamoxifen-resistant MCF7 xenograft (passage 9), BALB/c nude mouse, treated for 28; versus each agent alone
Method: Tamoxifen-resistant MCF-7 cells were subcutaneously implanted to establish cell line-derived xenograft tumors. […] This tumor was then defined as passage 0. The tumor fragments were constantly implanted into new animals (per passage) with 30 mg/kg Tamoxifen treatment. For the efficacy study, the passage 9 tamoxifen-resistant tumor fragments (˜30 mm3) were inoculated subcutaneously at the right flank of each BALB/c nude mouse, which has been implanted with 17β-estradiol (0.36 mg) tablet subcutaneously in the left flank three days before. When the average tumor volume reached approximately 175 mm3, the animals were randomized and treated for 28. Tamoxifen-resistant MCF7 human xenograft tumors were treated with an ER degrader 160b alone, or with a CDK4/6 inhibitor, Palbociclib, alone, or with the combination of ER degrader 160b and Palbociclib.

Structure (SMILES)	cell growth inhibition, combination with Abemaciclib (ER-positive T47D cells; ER degrader at increasing concentrations combined with Abemaciclib 10, 30, 100 nM, versus single agent)	cell growth inhibition, combination with Palbociclib (ER-positive T47D cells; ER degrader at increasing concentrations combined with Palbociclib 10, 30, 100 nM, versus each agent alone)	tumor growth inhibition, combination with Palbociclib [1]	tumor growth inhibition, combination with Palbociclib [2]
CCC(=C(c1ccc(O)cc1)c1ccc(N2CCC(CN3CCN(c4ccc5c(c4)CN([C@H]4CCC(=O)NC4=O)C5=O)CC3)CC2)cc1)c1ccccc1 [160a, (E)/(Z)-(S)-3-(5-(4-((1-(4-(1-(4-hydroxyphenyl)-2-phenylbut-1-en-1-yl)phenyl)piperidin-4-yl)methyl)piperazin-1-yl)-1-oxoisoindolin-2-yl)piperidine-2,6-dione]	synergizes with CDK4/6 inhibitor Abemaciclib in vitro to inhibit cell growth with greater efficacy than the ER degrader alone	synergizes with CDK4/6 inhibitor Palbociclib in vitro to inhibit cell growth with greater efficacy than the ER degrader or CDK4/6 inhibitor alone	synergizes with CDK4/6 inhibitor Palbociclib in vivo to inhibit tumor growth with greater efficacy than the ER degrader or CDK4/6 inhibitor alone	
CC/C(=C(\c1ccc(O)cc1)c1ccc(N2CCC(CN3CCN(c4ccc5c(c4)CN([C@H]4CCC(=O)NC4=O)C5=O)CC3)CC2)cc1)c1ccccc1 [160b]				synergizes with CDK4/6 inhibitor Palbociclib in vivo to inhibit tumor growth with greater efficacy than the ER degrader or CDK4/6 inhibitor alone
